Assay results as given in the NIST ThermoML archive (doi:10.1021/je800463k).
Numbers after ± are expanded uncertainties.

Assay: mn = molality of the nth substance listed, in mol/kg
Settings: 101 kPa, Liquid; for electrical conductivity: Frequency=0.001 MHz, Alternating current cell with electrodes; for speed of sound: Frequency=2 MHz; for mass density: Pycnometric method

CC(=O)[O-].CC(=O)[O-].[Mg+2] [magnesium acetate] + CO
Settings	electrical conductivity [S/m]	mass density [kg/m3]	speed of sound [m/s]	viscosity [mPa·s]
273.15 K, m1 = 0.0059	0.0325 ± 0.0001	–	1185.9 ± 6.8	–
273.15 K, m1 = 0.0093	0.055 ± 0.0001	–	1186.1 ± 6.8	–
273.15 K, m1 = 0.014	–	–	–	0.821 ± 0.021
273.15 K, m1 = 0.018	0.0621 ± 0.0001	–	1186.2 ± 6.8	0.8229 ± 0.021
273.15 K, m1 = 0.0339	0.0796 ± 0.0001	–	–	0.8417 ± 0.022
273.15 K, m1 = 0.053	0.0922 ± 0.0001	–	1190.2 ± 6.8	–
273.15 K, m1 = 0.0646	0.0965 ± 0.0001	–	–	0.8642 ± 0.022
273.15 K, m1 = 0.0855	0.106 ± 0.0001	–	1190.1 ± 6.8	–
273.15 K, m1 = 0.1012	–	–	–	0.9108 ± 0.023
273.15 K, m1 = 0.1024	0.1148 ± 0.0001	–	1194.5 ± 6.8	–
273.15 K, m1 = 0.13	–	–	–	0.9308 ± 0.024
273.15 K, m1 = 0.1402	0.1289 ± 0.0001	–	1194.6 ± 6.8	0.9493 ± 0.024
273.15 K, m1 = 0.1455	0.1307 ± 0.0001	–	1192.6 ± 6.8	–
273.15 K, m1 = 0.17	–	–	–	0.9637 ± 0.024
273.15 K, m1 = 0.1837	0.1414 ± 0.0001	–	1195.3 ± 6.8	–
273.15 K, m1 = 0.2003	–	–	–	0.9889 ± 0.025
273.15 K, m1 = 0.2192	–	–	1196.7 ± 6.8	–
273.15 K, m1 = 0.2422	0.1507 ± 0.0001	–	1196.9 ± 6.8	1.042 ± 0.026
273.15 K, m1 = 0.2453	–	–	–	1.036 ± 0.026
273.15 K, m1 = 0.2889	0.1565 ± 0.0001	–	1197.1 ± 6.8	1.091 ± 0.027
273.15 K, m1 = 0.3042	–	–	1199.6 ± 6.8	–
278.15 K, m1 = 0.0059	0.0329 ± 0.0001	–	1169.1 ± 6.7	–
278.15 K, m1 = 0.0093	0.0556 ± 0.0001	–	1169.4 ± 6.7	–
278.15 K, m1 = 0.014	–	–	–	0.7547 ± 0.02
278.15 K, m1 = 0.018	0.0627 ± 0.0001	–	1170 ± 6.7	0.7565 ± 0.02
278.15 K, m1 = 0.0339	0.0807 ± 0.0001	–	–	0.7732 ± 0.02
278.15 K, m1 = 0.053	0.0937 ± 0.0001	–	1172.6 ± 6.7	–
278.15 K, m1 = 0.0646	0.0989 ± 0.0001	–	–	0.7927 ± 0.021
278.15 K, m1 = 0.0855	0.1084 ± 0.0001	–	1176.6 ± 6.7	–
278.15 K, m1 = 0.1012	–	–	–	0.8332 ± 0.021
278.15 K, m1 = 0.1024	0.1174 ± 0.0001	–	1176.8 ± 6.7	–
278.15 K, m1 = 0.13	–	–	–	0.8509 ± 0.022
278.15 K, m1 = 0.1402	0.1326 ± 0.0001	–	1177.7 ± 6.7	0.867 ± 0.022
278.15 K, m1 = 0.1455	0.135 ± 0.0001	–	1175 ± 6.7	–
278.15 K, m1 = 0.17	–	–	–	0.8812 ± 0.022
278.15 K, m1 = 0.1837	0.1448 ± 0.0001	–	1179.3 ± 6.7	–
278.15 K, m1 = 0.2003	–	–	–	0.9025 ± 0.023
278.15 K, m1 = 0.2192	–	–	1181 ± 6.8	–
278.15 K, m1 = 0.2422	0.153 ± 0.0001	–	1179.9 ± 6.7	0.9469 ± 0.024
278.15 K, m1 = 0.2453	–	–	–	0.9437 ± 0.024
278.15 K, m1 = 0.2889	0.1605 ± 0.0001	–	1180.9 ± 6.8	0.9892 ± 0.025
278.15 K, m1 = 0.3042	–	–	1181.7 ± 6.8	–
283.15 K, m1 = 0.0059	0.0334 ± 0.0001	–	1152.8 ± 6.6	–
283.15 K, m1 = 0.0093	0.0562 ± 0.0001	–	1153.2 ± 6.6	–
283.15 K, m1 = 0.014	–	–	–	0.6979 ± 0.018
283.15 K, m1 = 0.018	0.0634 ± 0.0001	–	1154.7 ± 6.6	0.6998 ± 0.018
283.15 K, m1 = 0.0339	0.0818 ± 0.0001	–	–	0.7143 ± 0.019
283.15 K, m1 = 0.053	0.0954 ± 0.0001	–	1156.3 ± 6.7	–
283.15 K, m1 = 0.0646	0.1008 ± 0.0001	–	–	0.7304 ± 0.019
283.15 K, m1 = 0.0855	0.1089 ± 0.0001	–	1156.5 ± 6.7	–
283.15 K, m1 = 0.1012	–	–	–	0.7669 ± 0.02
283.15 K, m1 = 0.1024	0.1198 ± 0.0001	–	1160.3 ± 6.7	–
283.15 K, m1 = 0.13	–	–	–	0.7824 ± 0.02
283.15 K, m1 = 0.1402	0.1355 ± 0.0001	–	1160.4 ± 6.7	0.7965 ± 0.021
283.15 K, m1 = 0.1455	0.1388 ± 0.0001	–	1158.5 ± 6.7	–
283.15 K, m1 = 0.17	–	–	–	0.8105 ± 0.021
283.15 K, m1 = 0.1837	0.1465 ± 0.0001	–	1161.7 ± 6.7	–
283.15 K, m1 = 0.2003	–	–	–	0.8289 ± 0.021
283.15 K, m1 = 0.2192	–	–	1162.8 ± 6.7	–
283.15 K, m1 = 0.2422	0.1656 ± 0.0001	–	1163.1 ± 6.7	0.8664 ± 0.022
283.15 K, m1 = 0.2453	–	–	–	0.8643 ± 0.022
283.15 K, m1 = 0.2889	0.1642 ± 0.0001	–	1163.5 ± 6.7	0.8961 ± 0.023
283.15 K, m1 = 0.3042	–	–	1165.8 ± 6.7	–
288.15 K, m1 = 0.0059	0.0341 ± 0.0001	–	1135.7 ± 6.6	–
288.15 K, m1 = 0.0093	0.0566 ± 0.0001	–	1136.1 ± 6.6	–
288.15 K, m1 = 0.014	–	–	–	0.6458 ± 0.017
288.15 K, m1 = 0.018	0.0642 ± 0.0001	–	1137.4 ± 6.6	0.6478 ± 0.017
288.15 K, m1 = 0.0339	0.0831 ± 0.0001	–	–	0.6606 ± 0.018
288.15 K, m1 = 0.053	0.0969 ± 0.0001	–	1138.1 ± 6.6	–
288.15 K, m1 = 0.0646	0.1033 ± 0.0001	–	–	0.6743 ± 0.018
288.15 K, m1 = 0.0855	0.1114 ± 0.0001	–	1139.7 ± 6.6	–
288.15 K, m1 = 0.1012	–	–	–	0.7063 ± 0.019
288.15 K, m1 = 0.1024	0.1227 ± 0.0001	–	1142.7 ± 6.6	–
288.15 K, m1 = 0.13	–	–	–	0.7206 ± 0.019
288.15 K, m1 = 0.1402	0.139 ± 0.0001	–	1144.3 ± 6.6	0.7286 ± 0.019
288.15 K, m1 = 0.1455	0.1428 ± 0.0001	–	1141.6 ± 6.6	–
288.15 K, m1 = 0.17	–	–	–	0.7465 ± 0.019
288.15 K, m1 = 0.1837	0.1496 ± 0.0001	–	1143.8 ± 6.6	–
288.15 K, m1 = 0.2003	–	–	–	0.7639 ± 0.02
288.15 K, m1 = 0.2192	–	–	1147.5 ± 6.6	–
288.15 K, m1 = 0.2422	0.1673 ± 0.0001	–	1146.4 ± 6.6	0.7865 ± 0.02
288.15 K, m1 = 0.2453	–	–	–	0.7929 ± 0.021
288.15 K, m1 = 0.2889	0.1692 ± 0.0001	–	1147 ± 6.6	0.8205 ± 0.021
288.15 K, m1 = 0.3042	–	–	1149.4 ± 6.6	–
293.15 K, m1 = 0.0059	0.0349 ± 0.0001	–	1119 ± 6.5	–
293.15 K, m1 = 0.0093	0.0575 ± 0.0001	–	1118.9 ± 6.5	–
293.15 K, m1 = 0.014	–	–	–	0.6 ± 0.016
293.15 K, m1 = 0.018	0.0649 ± 0.0001	–	1120.9 ± 6.5	0.6022 ± 0.016
293.15 K, m1 = 0.0339	0.0843 ± 0.0001	–	–	0.6132 ± 0.017
293.15 K, m1 = 0.053	0.0985 ± 0.0001	–	1121.1 ± 6.5	–
293.15 K, m1 = 0.0646	0.1055 ± 0.0001	–	–	0.6249 ± 0.017
293.15 K, m1 = 0.0855	0.1149 ± 0.0001	–	1122.8 ± 6.5	–
293.15 K, m1 = 0.1012	–	–	–	0.6535 ± 0.017
293.15 K, m1 = 0.1024	0.1258 ± 0.0001	–	1126 ± 6.5	–
293.15 K, m1 = 0.13	–	–	–	0.666 ± 0.018
293.15 K, m1 = 0.1402	0.1426 ± 0.0001	–	1128.4 ± 6.5	0.6731 ± 0.018
293.15 K, m1 = 0.1455	0.1463 ± 0.0001	–	1124.4 ± 6.5	–
293.15 K, m1 = 0.17	–	–	–	0.6902 ± 0.018
293.15 K, m1 = 0.1837	0.1536 ± 0.0001	–	1127.3 ± 6.5	–
293.15 K, m1 = 0.2003	–	–	–	0.7039 ± 0.018
293.15 K, m1 = 0.2192	–	–	1130.4 ± 6.6	–
293.15 K, m1 = 0.2422	0.1693 ± 0.0001	–	1129.6 ± 6.5	0.7255 ± 0.019
293.15 K, m1 = 0.2453	–	–	–	0.7305 ± 0.019
293.15 K, m1 = 0.2889	0.1735 ± 0.0001	–	1131.7 ± 6.6	0.7548 ± 0.02
293.15 K, m1 = 0.3042	–	–	1132.6 ± 6.6	–
296.65 K, m1 = 0.1112	–	798.51 ± 2.5	–	–
297.55 K, m1 = 0.2192	–	803.53 ± 2.9	–	–
298.15 K, m1 = 0.0059	0.0355 ± 0.0001	–	1102.5 ± 6.4	–
298.15 K, m1 = 0.0093	0.058 ± 0.0001	–	1102 ± 6.4	–
298.15 K, m1 = 0.014	–	–	–	0.5583 ± 0.015
298.15 K, m1 = 0.018	0.0656 ± 0.0001	–	1103.5 ± 6.4	0.5605 ± 0.015
298.15 K, m1 = 0.0339	0.0856 ± 0.0001	–	–	0.5703 ± 0.016
298.15 K, m1 = 0.053	0.1 ± 0.0001	–	1104.6 ± 6.4	–
298.15 K, m1 = 0.0646	0.108 ± 0.0001	–	–	0.5802 ± 0.016
298.15 K, m1 = 0.0855	0.1183 ± 0.0001	–	1106.7 ± 6.5	–
298.15 K, m1 = 0.1012	–	–	–	0.6059 ± 0.016
298.15 K, m1 = 0.1024	0.1284 ± 0.0001	–	1109.8 ± 6.5	–
298.15 K, m1 = 0.13	–	–	–	0.617 ± 0.017
298.15 K, m1 = 0.1402	0.1458 ± 0.0001	–	1111.6 ± 6.5	0.6234 ± 0.017
298.15 K, m1 = 0.1455	0.1485 ± 0.0001	–	1108.4 ± 6.5	–
298.15 K, m1 = 0.17	–	–	–	0.6396 ± 0.017
298.15 K, m1 = 0.1837	0.1578 ± 0.0001	–	1110.9 ± 6.5	–
298.15 K, m1 = 0.2003	–	–	–	0.6529 ± 0.017
298.15 K, m1 = 0.2192	–	–	1113.4 ± 6.5	–
298.15 K, m1 = 0.2422	0.1717 ± 0.0001	–	1112.7 ± 6.5	0.6701 ± 0.018
298.15 K, m1 = 0.2453	–	–	–	0.6746 ± 0.018
298.15 K, m1 = 0.2889	0.1776 ± 0.0001	–	1115.2 ± 6.5	0.6956 ± 0.018
298.15 K, m1 = 0.3042	–	–	1116.1 ± 6.5	–
298.5 K, m1 = 0.0646	–	793.38 ± 2	–	–
299 K, m1 = 0.0339	–	790.63 ± 1.2	–	–
299.1 K, m1 = 0.014	–	788.94 ± 0.86	–	–
299.25 K, m1 = 0.1798	–	800.6 ± 2.4	–	–
299.3 K, m1 = 0.2192	–	801.81 ± 4.2	–	–
299.35 K, m1 = 0.1112	–	795.95 ± 2.9	–	–
